Like-named read-outs stand apart in the source and are kept apart here.
Tests used:
[1] = system: IKKε-mediated phosphorylation of IRF3; assay: In-situ phosphorylation of IRF3 (pIRF3 Ser396 ELISA) in HEK293T cells cotransfected with IRF3 and IKKε; assay type: cell-based; settings: Homo sapiens, HEK-293T
Procedure, shortened: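 Cells for the IRF7 Western blots carried IRF7 and TBK1 plasmids, were seeded at 150,000/well, exposed to compound overnight and probed for pSer477/Ser479 IRF7. The ELISA readout used IRF3 + IKKε-cotransfected HEK293T at 20,000/well with 20 h treatment, quantifying pSer396 IRF3 relative to DMSO, plus a parallel CellTiter-Glo viability check.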

TBK1 = molecular target: T1, TBK1 (Homo sapiens, UniProt Q9UHD2); assay: In-vitro TBK1 kinase assay ([γ33]ATP filter-plate); assay type: biochemical
T1 construct: His-tag; made in house; host or cells: Sf9 insect cells
T1 sequence (Q9UHD2 1-729): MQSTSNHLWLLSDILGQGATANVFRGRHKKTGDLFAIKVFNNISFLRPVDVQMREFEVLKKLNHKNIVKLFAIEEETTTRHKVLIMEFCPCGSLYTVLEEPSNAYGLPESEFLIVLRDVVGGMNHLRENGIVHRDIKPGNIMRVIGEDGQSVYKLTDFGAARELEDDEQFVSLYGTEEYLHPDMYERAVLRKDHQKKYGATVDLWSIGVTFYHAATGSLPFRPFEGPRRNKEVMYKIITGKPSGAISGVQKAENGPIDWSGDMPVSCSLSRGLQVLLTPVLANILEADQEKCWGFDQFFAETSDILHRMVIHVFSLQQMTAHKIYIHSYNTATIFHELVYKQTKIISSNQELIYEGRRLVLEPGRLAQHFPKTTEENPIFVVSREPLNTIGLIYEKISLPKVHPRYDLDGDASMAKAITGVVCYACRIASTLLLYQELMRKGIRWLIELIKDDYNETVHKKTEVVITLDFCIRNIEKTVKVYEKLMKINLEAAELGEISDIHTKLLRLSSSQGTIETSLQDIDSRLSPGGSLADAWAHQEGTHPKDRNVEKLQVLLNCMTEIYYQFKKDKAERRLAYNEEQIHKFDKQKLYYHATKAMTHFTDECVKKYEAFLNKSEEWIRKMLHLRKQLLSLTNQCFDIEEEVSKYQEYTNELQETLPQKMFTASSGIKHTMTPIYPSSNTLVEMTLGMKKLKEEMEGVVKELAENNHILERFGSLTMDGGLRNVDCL
Procedure, shortened: (§1)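 His-tagged Sf9-expressed kinases at 0.1 or 0.02 μg/ml (TBK1) and 0.1 or 0.015 μg/ml (IKKε) for normal and sensitized formats, with myelin basic protein or casein substrate. ATP was at 2×Km (60 μM TBK1, 32 μM IKKε) plus 0.3 μCi [γ33]ATP. Reactions ran 30-45 min, were captured on P-81 filters, and counts were normalized to DMSO.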

IKKε = molecular target: T2, IKKε (Homo sapiens, UniProt Q14164); assay: In-vitro IKKε kinase assay ([γ33]ATP filter-plate); assay type: biochemical
T2 construct: His-tag; made in house; host or cells: Sf9 insect cells
T2 sequence (Q14164 1-716): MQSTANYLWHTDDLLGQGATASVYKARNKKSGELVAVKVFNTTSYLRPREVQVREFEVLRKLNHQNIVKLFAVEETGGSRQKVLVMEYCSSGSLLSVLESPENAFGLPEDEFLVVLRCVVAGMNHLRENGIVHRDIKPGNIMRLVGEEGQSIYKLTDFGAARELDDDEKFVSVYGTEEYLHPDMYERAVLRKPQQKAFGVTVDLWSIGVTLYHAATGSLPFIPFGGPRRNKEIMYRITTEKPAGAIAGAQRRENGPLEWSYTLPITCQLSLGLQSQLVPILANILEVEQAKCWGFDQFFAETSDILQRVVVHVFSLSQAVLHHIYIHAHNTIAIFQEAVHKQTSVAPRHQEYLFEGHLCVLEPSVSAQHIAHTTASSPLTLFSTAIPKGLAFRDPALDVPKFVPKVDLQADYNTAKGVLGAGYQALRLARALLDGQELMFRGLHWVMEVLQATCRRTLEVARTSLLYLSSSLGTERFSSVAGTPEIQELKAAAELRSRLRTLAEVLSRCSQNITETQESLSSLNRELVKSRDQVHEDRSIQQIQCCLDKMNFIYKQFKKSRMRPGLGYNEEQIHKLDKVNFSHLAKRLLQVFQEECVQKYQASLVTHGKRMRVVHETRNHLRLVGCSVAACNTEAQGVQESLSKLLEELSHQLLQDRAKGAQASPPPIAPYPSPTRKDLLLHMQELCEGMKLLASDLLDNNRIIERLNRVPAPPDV
Procedure, shortened: as §1

[2] = system: secreted RANTES, prostate cancer DU145 cells; assay: ELISA to detect secreted RANTES, DU145 cells; assay type: cell-based; settings: Homo sapiens, DU-145; cell system (DU145 or Poly(I:C)-induced MALME-3) not specified; read-out: IC50 for inhibition of the secretion of RANTES
Method: Prostate cancer DU145 cells were seeded at 20,000 cells/well in a 96-well tissue culture plate. The following day media was removed and replaced with complete media containing IKKε/TBK1 inhibitor (starting concentration 25 µM, 1:3 dilutions, final DMSO 0.05%). Cells were incubated for 20 hours and culture supernatant used to determine secreted RANTES levels using a commercially available ELISA kit (R & D Systems, Minneapolis, Minn.).

DU4475 cells = assay: Cell growth inhibition assay (CellTiter-Glo), DU4475; assay type: cell-based; settings: Homo sapiens, DU-4475; 3-5 days
Method: DU4475, COLO205, and OPM2 cells were plated in 96-well plates at 5000 cells/well. The following day test compounds (compounds according to Formula I) were added, maintaining the final DMSO solvent concentration at 0.4%. After the desired incubation time (3-5 days), cell number was assayed using the CellTiter-Glo luminescent cell viability assay (Promega, Inc., Madison, Wis.). Viability was expressed as percent DMSO control after background subtraction.

[3] = HEK293T cells, 20 hours, text bins, read-out: IC50 for inhibition of the in-situ IKKε-mediated phosphorylation of IRF3
[4] = text bins, read-out: IC50 for inhibition of the kinase activity of TBK1
[5] = text bins, read-out: IC50 for inhibition of the kinase activity of IKKε

Row | Compound | IC50 [1, 3] [nM] | IC50 (TBK1; [4]) [nM] | IC50 (IKKε; [5]) [nM] | IC50 [2] [nM] | IC50 ([1]; HEK293T cells in culture, Table 3, read-out: pIRF3 ELISA IC50) [nM] | IC50 (TBK1; Table 3, read-out: TBK1 IC50) [nM] | IC50 (IKKε; Table 3, read-out: IKKε IC50) [nM] | IC50 (DU4475 cells) [nM]
1 | COc1cc(NC(=O)CCSC)cc(Nc2nccc(-c3ccc(OC)c(C#N)c3)n2)c1 [compound 339, N-(3-{[4-(3-Cyano-4-methoxyphenyl)pyrimidin-2-yl]amino}-5-methoxyphenyl)-3-(methylsulfanyl) propanamide] | – | 10 to 100 | 5 to 50 | – | – | – | – | ≤ 10
2 | COc1ccc(-c2ccnc(Nc3cc(CO)c(OC)c(OC)c3)n2)cc1C#N [Example 127, 5-(2-{[3-(Hydroxymethyl)-4,5-dimethoxyphenyl]amino}pyrimidin-4-yl)-2-methoxybenzonitrile] | – | < 10 | < 5 | – | – | – | – | ≤ 10
3 | COc1ccc(Nc2nccc(-c3ccc(N(C)C)c(C#N)c3)n2)cc1OC [Example 206, 5-{2-[(3,4-Dimethoxyphenyl)amino]pyrimidin-4-yl}-2-(dimethylamino) benzonitrile] | 250 to 500 | < 10 | < 5 | – | – | – | – | –
4 | Cc1ccc(Nc2nccc(-c3ccc(OC4CCOCC4)c(C#N)c3)n2)cc1OCCN [compound 559, 5-(2-{[3-(2-Aminoethoxy)-4-methylphenyl]amino}pyrimidin-4-yl)-2-(tetrahydro-2H-pyran-4-yloxy)benzonitrile] | < 100 | < 10 | < 5 | – | – | – | – | –

The next lines start with results.

Row | IC50 [1, 3] [nM] | IC50 (TBK1; [4]) [nM] | IC50 (IKKε; [5]) [nM] | IC50 [2] [nM] | IC50 ([1]; HEK293T cells in culture, Table 3, read-out: pIRF3 ELISA IC50) [nM] | IC50 (TBK1; Table 3, read-out: TBK1 IC50) [nM] | IC50 (IKKε; Table 3, read-out: IKKε IC50) [nM] | Compound | IC50 (DU4475 cells) [nM]
5 | < 100 | < 10 | < 5 | < 10 | – | – | – | CC(=O)NCc1ccc(Nc2nccc(-c3ccc(OC4CCOCC4)c(C#N)c3)n2)cc1 [compound 492, N-[4-({4-[3-cyano-4-(tetrahydro-2H-pyran-4-yloxy)phenyl]pyrimidin-2-yl}amino)benzyl] acetamide] | –
6 | < 100 | < 10 | < 5 | < 10 | – | – | – | COc1cc(-c2ccnc(Nc3ccc(N4CCN(CCO)CC4)cc3)n2)cc(C#N)c1OC1CCOCC1 [compound 446, 5-[2-({4-[4-(2-Hydroxyethyl)piperazin-1-yl]phenyl}amino)pyrimidin-4-yl]-3-methoxy-2-(tetrahydro-2H-pyran-4-yloxy)benzonitrile] | –
7 | – | – | 5 to 50 | – | – | – | – | COCCOCC(=O)Nc1cc(Nc2nccc(-c3ccc(OC)c(C#N)c3)n2)cc(OC)c1 [compound 316, N-(3-{[4-(3-Cyano-4-methoxyphenyl)pyrimidin-2-yl]amino}-5-methoxyphenyl)-2-(2-methoxyethoxy) acetamide] | ≤ 10
8 | < 100 | < 10 | < 5 | < 10 | – | – | – | COc1cc(Nc2nccc(-c3ccc(OC4CCOCC4)c(C#N)c3)n2)ccc1C(=O)N(C)CCN(C)C [compound 505, 4-({4-[3-cyano-4-(tetrahydro-2H-pyran-4-yloxy)phenyl]pyrimidin-2-yl}amino)-N-[2-(dimethylamino)ethyl]-2-mrthoxy-N-methylbenzamide] | –
9 | 250 to 500 | < 10 | < 5 | – | – | – | – | COc1ccc(-c2ccnc(Nc3ccc(N4CCOCC4)c(OC)c3)n2)cc1C#N [Example 157, 2-Methoxy-5-(2-{[3-methoxy-4-(morpholin-4-yl)phenyl]amino}pyrimidin-4-yl)benzonitrile] | –
10 | < 100 | < 10 | < 5 | – | 16.2 | 0.4 | 0.2 | COc1cc(Nc2nccc(-c3ccc(OC4CCN(C(=O)CO)CC4)c(C#N)c3)n2)ccc1N1CCOCC1 [Example 59, 2-{[1-(hydroxyacetyl)piperidin-4-yl]oxy}-5-(2-{[3-methoxy-4-(morpholin-4-yl)phenyl]amino}pyrimidin-4-yl)benzonitrile] | –
11 | 250 to 500 | < 10 | < 5 | – | – | – | – | C[C@H](O)C(=O)N1CCC(Oc2ccc(-c3ccnc(Nc4ccc(C(=O)N5CCN(C)CC5)cc4)n3)cc2C#N)CC1 [Example 35, 2-({1-[(2S)-2-hydroxypropanoyl]piperidin-4-yl}oxy)-5-[2-({4-[(4-methylpierazin-1-yl)carbonyl]phenyl}amino)pyrimidin-4-yl]benzonitrile] | –

From US20150352108A1, “AMINO-PYRIMIDINE COMPOUNDS AS INHIBITORS OF TBK1 AND/OR IKK EPSILON” (Alzheimer's Institute of America, priority 2009, published 2015)
